The compounds below were run against Maltase-glucoamylase (Homo sapiens, UniProt O43451) (assay: Inhibition of alpha-glucosidase (unknown origin) using pNPG substrate incubated for 15 mins by microplate reader based method).
Chain of Maltase-glucoamylase (O43451 whole entry): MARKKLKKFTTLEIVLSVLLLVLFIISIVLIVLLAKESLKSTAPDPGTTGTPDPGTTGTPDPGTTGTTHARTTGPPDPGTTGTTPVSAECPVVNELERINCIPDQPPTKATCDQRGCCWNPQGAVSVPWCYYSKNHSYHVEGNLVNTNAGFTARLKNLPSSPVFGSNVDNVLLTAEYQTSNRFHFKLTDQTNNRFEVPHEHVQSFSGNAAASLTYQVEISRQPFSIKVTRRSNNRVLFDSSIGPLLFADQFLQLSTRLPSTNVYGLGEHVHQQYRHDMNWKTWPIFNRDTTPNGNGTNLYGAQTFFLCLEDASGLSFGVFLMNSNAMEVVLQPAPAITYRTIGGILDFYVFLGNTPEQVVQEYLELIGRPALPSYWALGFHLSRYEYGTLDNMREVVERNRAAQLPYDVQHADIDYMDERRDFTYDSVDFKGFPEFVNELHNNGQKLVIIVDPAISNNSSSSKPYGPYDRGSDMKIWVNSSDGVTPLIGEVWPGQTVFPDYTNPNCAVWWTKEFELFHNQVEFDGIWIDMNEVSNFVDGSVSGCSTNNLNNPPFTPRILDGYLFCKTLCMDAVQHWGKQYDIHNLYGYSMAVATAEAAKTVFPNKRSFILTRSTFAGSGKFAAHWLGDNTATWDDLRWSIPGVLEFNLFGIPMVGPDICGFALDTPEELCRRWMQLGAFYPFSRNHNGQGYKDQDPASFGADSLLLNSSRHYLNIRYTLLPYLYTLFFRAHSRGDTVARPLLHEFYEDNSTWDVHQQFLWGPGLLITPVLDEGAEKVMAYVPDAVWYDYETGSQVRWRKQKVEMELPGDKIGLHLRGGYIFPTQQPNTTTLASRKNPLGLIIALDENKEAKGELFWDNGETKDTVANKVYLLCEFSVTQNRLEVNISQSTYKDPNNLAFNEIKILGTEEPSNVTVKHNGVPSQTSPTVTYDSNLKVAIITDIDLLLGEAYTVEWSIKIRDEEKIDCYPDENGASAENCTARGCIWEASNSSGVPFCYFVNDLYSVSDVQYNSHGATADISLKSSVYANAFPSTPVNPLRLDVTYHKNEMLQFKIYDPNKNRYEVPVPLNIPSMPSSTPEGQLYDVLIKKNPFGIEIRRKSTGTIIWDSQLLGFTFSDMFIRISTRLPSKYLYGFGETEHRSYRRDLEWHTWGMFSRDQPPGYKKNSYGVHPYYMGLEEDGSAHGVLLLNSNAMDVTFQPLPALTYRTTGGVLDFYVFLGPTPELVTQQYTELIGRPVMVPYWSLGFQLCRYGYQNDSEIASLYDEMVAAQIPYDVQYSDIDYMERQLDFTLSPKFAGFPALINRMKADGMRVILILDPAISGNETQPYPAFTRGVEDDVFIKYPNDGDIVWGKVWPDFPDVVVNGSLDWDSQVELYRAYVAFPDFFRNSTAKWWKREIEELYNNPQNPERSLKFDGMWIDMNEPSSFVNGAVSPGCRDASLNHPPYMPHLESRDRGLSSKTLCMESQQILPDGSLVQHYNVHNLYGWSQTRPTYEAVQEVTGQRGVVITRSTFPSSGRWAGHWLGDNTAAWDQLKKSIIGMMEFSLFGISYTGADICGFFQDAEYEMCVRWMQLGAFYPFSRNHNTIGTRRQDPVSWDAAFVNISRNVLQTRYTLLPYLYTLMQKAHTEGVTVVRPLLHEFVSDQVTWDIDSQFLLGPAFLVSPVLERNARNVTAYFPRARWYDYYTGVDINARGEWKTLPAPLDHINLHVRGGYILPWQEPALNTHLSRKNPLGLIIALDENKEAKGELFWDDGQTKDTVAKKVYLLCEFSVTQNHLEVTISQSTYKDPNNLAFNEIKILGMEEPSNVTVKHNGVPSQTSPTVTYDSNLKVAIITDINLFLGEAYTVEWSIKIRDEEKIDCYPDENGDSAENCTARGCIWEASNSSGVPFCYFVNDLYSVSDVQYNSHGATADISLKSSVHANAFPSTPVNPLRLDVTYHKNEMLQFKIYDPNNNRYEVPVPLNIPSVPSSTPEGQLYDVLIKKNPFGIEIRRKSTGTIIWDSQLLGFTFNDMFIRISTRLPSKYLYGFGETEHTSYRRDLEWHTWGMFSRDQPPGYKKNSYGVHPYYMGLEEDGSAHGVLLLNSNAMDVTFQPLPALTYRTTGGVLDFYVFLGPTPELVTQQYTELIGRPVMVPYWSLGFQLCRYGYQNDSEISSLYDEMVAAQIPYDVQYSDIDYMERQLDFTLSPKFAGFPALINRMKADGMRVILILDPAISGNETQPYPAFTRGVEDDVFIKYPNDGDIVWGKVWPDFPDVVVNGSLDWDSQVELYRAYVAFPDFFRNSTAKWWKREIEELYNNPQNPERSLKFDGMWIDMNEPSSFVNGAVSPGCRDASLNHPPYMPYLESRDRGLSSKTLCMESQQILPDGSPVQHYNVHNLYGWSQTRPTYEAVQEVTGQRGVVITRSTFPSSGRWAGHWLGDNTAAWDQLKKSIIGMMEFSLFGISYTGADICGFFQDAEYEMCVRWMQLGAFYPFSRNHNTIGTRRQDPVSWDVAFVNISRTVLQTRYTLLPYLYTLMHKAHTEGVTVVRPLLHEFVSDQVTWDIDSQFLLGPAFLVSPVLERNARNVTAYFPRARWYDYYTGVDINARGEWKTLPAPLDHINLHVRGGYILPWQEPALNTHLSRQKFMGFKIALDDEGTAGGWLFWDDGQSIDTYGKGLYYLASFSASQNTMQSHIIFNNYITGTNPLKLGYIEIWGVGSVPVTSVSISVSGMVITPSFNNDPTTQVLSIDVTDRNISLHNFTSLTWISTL

IC50, Not Active:
O=C(N/N=C/c1ccncc1)c1ccc(-c2nc3ccccc3s2)cc1, COC(=O)c1ccc(/C=N/NC(=O)c2ccc(-c3nc4ccccc4s3)cc2)cc1, COc1ccc(/C=N/NC(=O)c2ccc(-c3nc4ccccc4s3)cc2)cc1O, COc1ccc(/C=N/NC(=O)c2ccc(-c3nc4ccccc4s3)cc2)cc1OC, O=C(N/N=C/c1cccnc1)c1ccc(-c2nc3ccccc3s2)cc1
